Assay results as given in US6706754B2, “Reversed amidines and methods of using for treating, preventing, or inhibiting leishmaniasis” (The United States of America as represented by the …, priority 2000, dated 2004).

Tests used:
Assay type in all cases: cell-based
[1] = tested on: L. donovani axenic amastigote-like parasites; assay: Axenic amastigote assay (CellTiter 96 tetrazolium dye growth assay); settings: 72 hours, 37° C., pH 5.5, concentration that inhibited parasite growth by 50%
Description: The growth susceptibilities of L. donovani axenic amastigote-like parasites to the candidate compounds were measured in a three day assay using the tetrazolium dye-based CellTiter 96 Aqueous Non-Radioactive Cell Proliferation Assay Kit (Promega, Madison, Wis.) according to Werbovetz, K., et al. (1999) Mol. Biochem. Parasitol. 98:53-65, which is herein incorporated by reference. Pentamidine, at a starting concentration of 100 μM, and serial dilutions thereof were used as controls. Specifically, L. donovani axenic amastigotes, as described by Joshi, M. et al. (1993) Mol. Biochem. Parasitol. 58:345-354, which is herein incorporated by reference, were seeded at 10^6 cells/ml in 96-well flat-bottomed plates (Costar, Cambridge, Mass.) and maintained as axenic amastigote-like forms by serial passage at 37° C. in a humid atmosphere comprising 5% CO2 using a slightly modified potassium-based version of the medium described by Joshi, M. et al. (1993) in the presence or absence of a given candidate compound. The medium comprised 15 mM KCl, […] KH2PO4, 10 mM K2HPO4, 0.5 mM MgSO4, and 24 mM NaHCO3 to give a final potassium concentration of […]. The medium was supplemented with 20% fetal bovine serum and was brought to pH 5.5. The final volume in each well was 60 μl. The plates were incubated at 37° C. for 72 hours, then 12 μl of the aqueous CellTiter solution from the kit (Promega, Madison, Wis.) was added to each well according to the instructions of the manufacturer. The plates were returned to the incubator for about 2 to about 3 hours. Then the absorbance of each well was measured at 490 nm using a SpectraMax Plus microplate reader (Molecular Devices, Sunnyvale, Calif.).
The results for each candidate compound may be found in the FIG. 1. The IC50 values (the concentration of the agent that inhibited parasite growth by 50%) for each candidate compound were determined for axenic amastigotes with the aid of the program SoftMax Pro (Molecular Devices, Sunnyvale, Calif.) using the following dose response equation: y=((a−d)/1+(x/c)^b)+d, wherein x=drug concentration; y=absorbance at 490 nm; a=upper asymptote; b=slope; c=IC50; and d=lower asymptote. FIG. 2 is the graphical data obtained for compound 1DWB667 as an example.

[2] = tested on: L. mexicana infected macrophages; assay: Infected macrophage assay, L. mexicana; settings: for Macrophage IC50 L. mexicana: J774.G8 mouse macrophages, 72 hours, 33° C., number of infected macrophages inhibited by 50%
Description: The susceptibilities of L. mexicania infected macrophages to candidate compounds were determined by the following assay.
(§1) A one week old, confluent culture of J774.G8 mouse macrophages was washed three times with Hank's Balanced Salt Solution (HBSS) without calcium and magnesium (Sigma, St. Louis, Mo.). The J774.G8 mouse macrophages are a continuous cell line that have been cited in the literature as supporting continuous and intracellular growth of various Leishmania sp. and they have been used for drug assays against intracellular parasites, Trypanosoma cruzi and Leishmania sp. See Alcina, A., et al. (1988) Antimicrobial Agents & Chemotherapy. 32(9):1412-5; Mendez, S., et al. (1996) International Journal for Parasitology 26(6):619-22; Hodgkinson, V. H., et al. (1996) Experimental Parasitology 83(1):94-105; and Chang, K. P. (1980) Science 209(4462): 1240-42, which are herein incorporated by reference.
(§2) The macrophages were then incubated at 37° C. in a humidified 5% CO2 incubator for 15 minutes with a Trypsin-EDTA (0.05% Trypsin, 0.53 mM EDTA 4Na) solution (GIBCO BRL, Grand Island, N.Y.). The macrophages were then detached with a cell scraper and suspended by vigorous pipetting. The macrophages were then mixed with a late log phase culture of L. mexicana promastigotes to yield a solution comprising about 5×10^5 macrophages per ml and about 25×10^5 promastigotes per ml in DMEM (pH 7.4) supplemented with 10% heat inactivated fetal calf serum comprising penicillin (50 units/ml) and streptomycin (50 μg/ml).
(§3) The macrophage-parasite mixture was then pipetted into 96-well flat-bottom plates (Costar, Cambridge, Mass.) at 200 μl per well. Infection and attachment of the macrophages was allowed to occur over a period of about 48 hours at 33° C. in a humidified 5% CO2 incubator. The wells were washed three times with HBSS to remove extracellular parasites. Each well was then treated with serial dilutions of a given candidate compound in DMEM.
(§4) The treated plate was incubated for about 72 hours at 33° C. in a humidified 5% CO2 incubator. The macrophages in each well were detached into the DMEM used for the incubation by pipetting and scraping with the tip of a microliter pipettor. 75 μl of the cell suspension was transferred to a cytospin funnel and the cells were centrifuged onto microscope slides at 800 rpm for 5 minutes using a Cytospin centrifuge (Shandon, Pittsburgh, Pa.).
(§5) The slides were air dried and then fixed in methanol for 5 seconds. After the methanol evaporated, the slides were stained with 5% Giemsa stain (Fisher, Suwanee, Ga.) in phosphate buffer comprising 3.1 mM potassium phosphate dibasic and 8.3 mM sodium phosphate monobasic for 45 minutes. After thorough washing with flowing tap water, the slides were air dried and then viewed by oil immersion microscopy to determine percentage of infected cells. A cell was considered to be infected if it comprised one or more amastigote with a visible parasite nucleus and kinetoplast. Counting parasites and counting infected cells provided similar results when determining IC50 values.
(§6) The IC50 values (the concentration of the compound that inhibited the number of infected macrophages by 50%) were determined with the software program TableCurve (SPSS Science, Chicago, Ill.) using the following dose-response equation: y=a+b/(1+(x/c)^d), where x=the drug concentration, y=absorbance at 490 nm, a=upper asymptote, b=slope, c=IC50 and d=lower asymptote. FIG. 3 provides the graphical data obtained for compound 1DWB667 as an example.

[3] = tested on: L. donovani infected macrophages; assay: Infected macrophage assay, L. donovani; settings: for Macrophage IC50 L. donovani: J774.G8 mouse macrophages, 72 hours, 37° C., number of infected macrophages inhibited by 50%
Description: as §1, §2, §3, §4, §5, §6
The susceptibility of L. donovani infected macrophages to the compounds of the present invention were preformed by a modified protocol for L. mexicana infected macrophages above, wherein all incubations of the parasite infected macrophages were done at 37° C. rather than 33° C. FIG. 4 provides the graphical data for compound 1DWB667 as an example.

Substance | Axenic Amastigote IC50 L. donovani [1] [µg/mL] | Macrophage IC50 L. mexicana [2] [µg/mL] | reduction of parasite burden in L. mexicana infected macrophages (in words) ([2]; in vitro, cutaneous strain) | Macrophage IC50 L. donovani [3] [µg/mL] | reduction of parasite burden in L. donovani infected macrophages (in words) ([3]; in vitro, visceral strain) | Axenic Amastigote IC50 L. donovani ([1]; listed as DB709) | Macrophage IC50 L. mexicana ([2]; listed as DB709) | Axenic Amastigote IC50 L. donovani ([1]; listed as DB702) | Macrophage IC50 L. donovani ([3]; listed as DB702) | Axenic Amastigote IC50 L. donovani ([1]; listed as DB710) | Macrophage IC50 L. mexicana ([2]; listed as DB710) | Macrophage IC50 L. mexicana ([2]; listed as DB667) | Macrophage IC50 L. donovani ([3]; listed as 1DWB667)
2,5-Bis[2-chloro-4-(2-pyridylimino)aminophenyl]furan [DB 712] | 0.308 | 0.689 | least effective in reducing parasite burden | 0.127 | least effective in reducing parasite burden |  |  |  |  |  |  |  | 
2,5-Bis[2-methoxy-4-(2-pyridylimino)aminophenyl]furan [DB 709] | 0.157 | 0.127 |  | 0.104 |  | about 0.2 μg/ml | about 0.1 μg/ml |  |  |  |  |  | 
2,5-Bis[2-methyl-4-(2-pyridylimino)aminophenyl]furan [DB 702] | 0.174 | 0.220 |  | 0.063 |  |  |  | about 0.2 μg/ml | about 0.1 μg/ml |  |  |  | 
2,5-Bis[2-methyl-4-(5-methyl-2-pyridylimino)aminophenyl]furan [DB 710] | 0.242 | 0.094 |  | 0.530 |  |  |  |  |  | about 0.2 μg/ml | about 0.1 μg/ml |  | 
2,5-Bis[4-(2-pyridylimino)aminophenyl]furan [1DWB 667] | 0.550 | 1.37 |  | 0.942 |  |  |  |  |  |  |  | about 1.4 μg/ml | about 1.4 μg/ml
